Results taken from publication PMC4457826 (PLoS Pathogens, 2015).

Experiments:
USP7-CTD = biological target: T1, USP7-CTD (Homo sapiens, UniProt Q93009); experiment: GST pull-down, USP7-CTD; assay type: binding; conditions: GST fusions 250 μg + USP7-CTD 250 μg, 50 mM Tris pH 8.0, 100 mM NaCl, 5 mM DTT, 5% glycerol, overnight 4°C; Coomassie stained gel; Fig 1A/1D; symbols not defined
T1 construct: USP7-CTD (535–1102); His tag (inferred from nickel-NTA purification; vector p15TV-L); made in house; host or cells: E. coli BL21(DE3)mgk
Protocol: (§1) Fragments representing USP7-CTD Ubl domains were prepared using ligation independent cloning with In-Fusion (Clontech) in p15TV-L. The boundaries of the Ubl domain constructs are Ubl12 (535–776), Ubl123 (535–889), Ubl345 (776–1102), Ubl45 (886–1102) and USP7-CTD (535–1102). Plasmids expressing USP7-NTD, USP7, and myc-USP7 WT (pCANmycUSP7) were described previously. USP7 mutants E759A, D762A, D764A and D762A/D764A in Ubl123 were synthesized (Genscript) and inserted into the pET15b plasmid. USP7 mutants E759A, D762A, D764A, D762A/D764A and D762R/D764R in USP7-CTD were prepared by ACGT Corporation. The D762R/D764R mutant was then sub-cloned into wild-type pCANmycUSP7 for co-IP assays. The mammalian ICP0 expression construct pCI-110 ICP0 was obtained from Roger Everett.
(§2) The ICP0, GMPS and UHRF1 WT and mutant peptides were cloned into pGEX-2TK and expressed in E. coli BL21(DE3). GST-ICP0 594–775 was obtained from Roger Everett. The GST-ICP0 or GST-GMPS or GST-UHRF1 or GST-ICP0 594–775 cell pellets from 500 ml of LB broth were re-suspended with PBS and lysed using sonication. The cleared lysates were applied to 500 μl of equilibrated glutathione-sepharose beads and incubated with rocking for 60 min at 4°C. Unbound proteins were removed by washing with PBS. Bound proteins were eluted with 50 mM Tris pH 8.0 and 100 mM NaCL containing 30 mM reduced glutathione. Equal amounts (250 μg) of the various USP7 proteins were incubated with 250 μg of the GST-ICP0 or GST-GMPS or GST-UHRF1 or GST-ICP0 594–775 peptides in 50 mM Tris pH 8.0, 100 mM NaCl, 5 mM DTT, 5% glycerol, 0.1 mM Benzamidine and 0.05 mM PMSF, applied to equilibrated glutathione-sepharose beads and incubated overnight with rocking at 4°C. After extensive washing, bound proteins were eluted with 50 mM Tris pH 8.0 and 100 mM NaCl containing 30 mM reduced glutathione.

FL-USP7 = experiment: GST pull-down, USP7-FL; assay type: binding, human; conditions: GST fusions 250 μg + USP7 250 μg, 50 mM Tris pH 8.0, 100 mM NaCl, 5 mM DTT, 5% glycerol, overnight 4°C; Coomassie stained gel; Fig 1A/1C; symbols not defined
Protocol: The USP7 binding region is found within ICP0 residues 594–633 and mutagenesis studies have shown that K620 is essential for the interaction. In order to facilitate crystallization and structure determination, we set out to identify a shorter peptide that is capable of binding to USP7. To this end, a series of overlapping GST-ICP0 fusions (591–605, 595–609, 599–613, 603–617, 607–621, 611–625, 615–629, 619–633) were prepared (see Fig 1A for sequence details) and used in GST pull-down assays. […] Overall, our GST pull-down assays identified ICP0 residues between 619 and 629 as important mediators of USP7 binding in agreement with a previous study.
Next we determined which region of USP7-CTD interacted with the ICP0 615–629 peptide. FL-USP7, USP7-CTD as well as Ubl12, Ubl123, Ubl345 and Ubl45 (Fig 1B) were used as prey in GST pull-down assays using GST-ICP0 615–629. FL-USP7 and USP7-CTD were used as positive controls while GST alone and USP7-NTD were used as negative controls.
as §2

USP7 Ubl123 = biological target: T2, USP7 Ubl123 (Homo sapiens, UniProt Q93009); experiment: GST pull-down, Ubl123; assay type: binding; conditions: mutations within ICP0 615–629, Fig 3D
T2 construct: Ubl123 (535–889); His tag (inferred from nickel-NTA purification; vector p15TV-L); made in house; host or cells: E. coli BL21(DE3)mgk
Protocol: as §1, §2

USP7-CTD mutant D762A = experiment: GST pull-down, USP7-CTD D762A; assay type: binding, human
Protocol: as §1, §2

[1] = test system: USP7-CTD mutant D762A/D764A; experiment: GST pull-down, USP7-CTD D762A/D764A; assay type: binding, human
Protocol: as §1, §2

[2] = test system: USP7-CTD mutant D762R/D764R; experiment: GST pull-down, USP7-CTD D762R/D764R; assay type: binding, human
Protocol: as §1
The ICP0, GMPS and UHRF1 WT and mutant peptides were cloned into pGEX-2TK and expressed in E. coli BL21(DE3). GST-ICP0 594–775 was obtained from Roger Everett. The GST-ICP0 or GST-GMPS or GST-UHRF1 or GST-ICP0 594–775 cell pellets from 500 ml of LB broth were re-suspended with PBS and lysed using sonication. The cleared lysates were applied to 500 μl of equilibrated glutathione-sepharose beads and incubated with rocking for 60 min at 4°C. Unbound proteins were removed by washing with PBS. Bound proteins were eluted with 50 mM Tris pH 8.0 and 100 mM NaCL containing 30 mM reduced glutathione. […]

[3] = test system: myc-tagged D762R/D764R (MRGR) USP7; experiment: Co-immunoprecipitation with myc-tagged D762R/D764R (MRGR) USP7 from 293T cells; assay type: cell-based, human; conditions: anti-myc IP
Protocol: (§3) 293T cells were grown in Dulbecco’s modified Eagle’s medium (DMEM) (Gibco) with 10% fetal calf serum. 293T cells at 70% confluence in a 10-cm-diameter dish were transfected with 10 μg pCANmycUSP7 expressing WT USP7 or D762R/D764R (MRGR) USP7 or with pcDNA3.1 (negative control), in each case using 20 μl PolyJet (SignaGen Laboratories) transfection reagent. Cells were transferred to a 15-cm-diameter dish 24 h post-transfection and harvested 48 h post-transfection. For experiments on USP7-ICP0 interactions, 293T cells were co-transfected with 1 μg pCANmycUSP7 expressing WT or D762R/D764R (MRGR) USP7 and either 1 μg pCI-110 ICP0 or 1 μg pcDNA3.1. For controls lacking USP7, 1 μg pCI-110 ICP0 was co-transfected with 1 μg pcDNA3.1. In each case 4 μl PolyJet (SignaGen Laboratories) transfection reagent was used.
Protein samples were subjected to SDS-PAGE and transferred to nitrocellulose. Membranes were blocked in 5% skim milk in Tris-buffered saline with 1% Tween (TBS-T) and then incubated with antibodies against ICP0 (H1A027 from Virusys Corporation; 1:5000 dilution), myc (sc-40 from Santa Cruz Biotechnology; 1:5000 dilution), NP95/UHRF1 (A301-470A from Bethyl Laboratories; 1:1000 dilution), GMPS (rabbit serum raised against full-length GMPS [17]; 1:5000 dilution) and actin (MA5-15739 from Pierce; 1:20,000 dilution). After washing, blots were probed with goat anti-mouse or goat anti-rabbit peroxidase (Santa Cruz Biotechnology; 1:5000 dilution) and developed using chemiluminescence reagents (Santa Cruz biotechnology).
293T cells transfected as described above were washed in phosphate-buffered saline (PBS) and lysed on ice for 45 min in a 4x volume of RIPA buffer (50 mM Tris-HCl [pH 8], 150 mM NaCl, 0.1% sodium deoxycholate, 0.5% NP-40) with complete protease inhibitors (Sigma P8340), followed by centrifugation. 1 mg of each clarified lysate was incubated with 1 μg of anti-myc antibody for 1h, followed by incubation with 30 μl of A/G PLUS agarose resin (Santa Cruz Biotechnology) for 2 h at 4°C with end-over-end rotation. The resin was harvested by centrifugation, washed in RIPA buffer, and then boiled in SDS loading buffer. Immunoprecipitated proteins were separated by SDS-PAGE and analyzed by Western blotting, as described above.

myc-tagged WT USP7 = experiment: Co-immunoprecipitation with myc-tagged WT USP7 from 293T cells; assay type: cell-based, human; conditions: anti-myc IP, endogenous protein, Western blot, Fig 5B
Protocol: as §3
Protein samples were subjected to SDS-PAGE and transferred to nitrocellulose. […]
293T cells transfected as described above were washed in phosphate-buffered saline (PBS) and lysed on ice for 45 min in a 4x volume of RIPA buffer (50 mM Tris-HCl [pH 8], 150 mM NaCl, 0.1% sodium deoxycholate, 0.5% NP-40) with complete protease inhibitors (Sigma P8340), followed by centrifugation. […] Immunoprecipitated proteins were separated by SDS-PAGE and analyzed by Western blotting, as described above.

T2 sequence (Q93009 535-889): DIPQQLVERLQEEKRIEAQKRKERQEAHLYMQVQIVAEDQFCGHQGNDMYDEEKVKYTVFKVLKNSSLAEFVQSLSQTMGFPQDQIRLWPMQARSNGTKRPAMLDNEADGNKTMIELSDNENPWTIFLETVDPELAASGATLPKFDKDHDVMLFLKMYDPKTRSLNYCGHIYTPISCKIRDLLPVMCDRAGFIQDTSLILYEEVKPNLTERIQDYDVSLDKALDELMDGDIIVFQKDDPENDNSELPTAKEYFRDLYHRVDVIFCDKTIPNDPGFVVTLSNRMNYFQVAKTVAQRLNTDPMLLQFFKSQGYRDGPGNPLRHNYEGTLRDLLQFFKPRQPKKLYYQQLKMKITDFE
T1 sequence (Q93009 535-1102): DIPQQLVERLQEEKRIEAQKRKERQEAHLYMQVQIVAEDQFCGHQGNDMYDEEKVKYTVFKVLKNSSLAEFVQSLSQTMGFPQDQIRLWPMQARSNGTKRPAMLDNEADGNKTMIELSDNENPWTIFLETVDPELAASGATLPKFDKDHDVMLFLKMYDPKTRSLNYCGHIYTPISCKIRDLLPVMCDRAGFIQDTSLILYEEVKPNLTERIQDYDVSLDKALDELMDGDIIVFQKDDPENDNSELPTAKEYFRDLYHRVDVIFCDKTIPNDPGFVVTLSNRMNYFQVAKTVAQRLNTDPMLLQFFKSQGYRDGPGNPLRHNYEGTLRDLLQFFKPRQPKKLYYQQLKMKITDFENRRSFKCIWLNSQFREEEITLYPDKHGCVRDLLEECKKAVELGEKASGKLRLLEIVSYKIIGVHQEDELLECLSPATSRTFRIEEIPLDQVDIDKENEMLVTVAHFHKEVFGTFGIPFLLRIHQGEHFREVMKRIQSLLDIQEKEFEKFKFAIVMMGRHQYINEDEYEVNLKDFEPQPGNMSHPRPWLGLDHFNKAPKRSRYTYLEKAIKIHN

RKCARKTRHAETSGA [ICP0 619–633, GST-ICP0 fusion of ICP0 residues 619–633]
Interaction with USP7-CTD (overlapping GST-ICP0 peptides) (USP7-CTD): strongest interaction
Interaction with USP7-FL (overlapping GST-ICP0 peptides) (FL-USP7): strongest interaction

RRKK
Binding of mutant GST-ICP0 peptides to Ubl123 (USP7 Ubl123): lacked detectable binding

TGKGKWKR [UHRF1 peptide, UHRF1 peptide with KxxxK motif, residues 642–649]
Binding to USP7-CTD mutant D762A (USP7-CTD mutant D762A): disrupted
Binding to USP7-CTD mutant D762A/D764A [1]: disrupted
Binding to USP7-CTD mutant D762R/D764R [2]: disrupted

UHRF1: endogenous epigenetic regulator UHRF1 in 293T cells, an E3 ligase
binding relative to recovery with WT USP7 ([3]; D762R/D764R mutant, endogenous protein, multiple experiments, Fig 5B): 21% (± 6%)
recovery with D762R/D764R USP7 (co-IP), in words ([3]; Western blot, Fig 5): significantly decreased
recovery with WT USP7 (co-IP) (myc-tagged WT USP7): efficiently recovered
